Source: US10765115B2 (priority 2015, dated 2020)

Assays:
[1] = assay type: physicochemical; settings: pH 7
[2] = system: legionella bacteria; assay type: cell-based; settings: initial 10^7 CFU/100 mL, after 24 hours, 36° C., pH 7.0

Compound | Residual concentration Cl2 (monochlorosulfamic acid as Cl2) [1] | Residual concentration Cl-MIT [1] | Sterilizing rate [2]
Cn1sc(Cl)cc1=O [Sample 19, 5-chloro-2-methyl-4-isothiazoline-3-one] | 0 mg/L | 1500.0 µg/L | 
Cn1sc(Cl)cc1=O [Sample 11, 5-chloro-2-methyl-4-isothiazoline-3-one] | 0 mg/L | 2.1 µg/L | 100%
Cn1sc(Cl)cc1=O [Sample 17, 5-chloro-2-methyl-4-isothiazoline-3-one] | 0 mg/L | 600.0 µg/L | 
